# Assay results as given in patent publication US20190111040A1, “IN VIVO AMELIORATION OF ENDOGENOUS ANTI-TUMOR AUTOANTIBODIES TARGETING SURFACE TUMOR ANTIGENS VIA LOW-DOSE P4N” (THE JOHNS HOPKINS UNIVERSITY, priority 2016, published 2019).
# Structures can show the parent of a compound that is named as a salt.
# Experiments:
# Raji or OKT3 cells = assay: Cell proliferation assay with THP-1-conditioned media; format: cell-based; settings: conditioned medium from THP-1 cells treated with P4N, 48 h, MTT
# Description: (§1) FIGS. 5A-5F depict the expression of Activin A/BAFF induced by P4N treatments. (A) P4N induced Activin A or BAFF expression in human PBMCs as determined by RT-PCR. S1-S5 display different individual blood samples collected from 5 different human donors; N, no treatment; P, P4N-treatment (3 μM). The change in Activin A and BAFF expression (mean of 5 patients) relative to the control (NC) is plotted as a histogram (B) The effect of increasing dosages of P4N for 12 h on mRNA and protein levels of Activin A or BAFF in THP-1 cells was analyzed by RT-PCR and ELISA. (C) The effect of 6 μM P4N on mRNA and protein levels of Activin A or BAFF in THP-1 cells was determined at a different time period. (D) The effect of different inhibitors on Activin A-induced BAFF expression was examined. The expression of BAFF mRNA in inhibitor-treated THP-1 cells was determined by RT-PCR, and (E) BAFF protein secretion was measured by ELISA. (F) The effect of THP-1 conditioned media on the proliferation of Raji cells and OKT3 hybridoma cells were determined. Media were harvested, in which THP-1 cells were pre-treated without inhibitor (2) or with SB431542 (3), A83-01 (4), SIS3 (5), SB203580 (6) or PD98059 (7) and then treated with P4N for 12 h. The results are expressed as % viable cells relative to the control (NC, media from untreated THP-1 cells). All values are the means of triplicate samples±SEM. The significant differences in the results of inhibitor and P4N-treated groups compared with the untreated group are indicated by ***P<0.001.
# Cell proliferation assay. Raji or OKT3 cells (1×10^4/well) were seeded and treated with THP-1-conditioned media. After 48 h the number of viable cells was determined by MTT assay. The indices of cell proliferation were calculated as previously described.
# mouse splenocytes = assay: Activin A and BAFF expression in mouse splenocytes; format: cell-based; settings: low dose P4N
# Description: FIGS. 14A-14C depict P4N-induced mouse B cell proliferation via the Activin A/BAFF pathway. (A) The proliferation of P4N-treated splenocytes. Splenocytes isolated from three mice were individually treated with increasing concentrations of P4N for 48 h and their proliferation was analyzed by MTT assay. The data are reported as the proliferation index. […] (B) The proliferation of B cells in mouse splenocytes treated with low doses of P4N. After treatment with P4N for 48 h, B-cells were identified by CD19 surface marker staining and the cell number was calculated following a flow cytometer analysis. […] Levels of Activin A and BAFF transcripts were measured by RT-PCR. Each sample obtained from 3 different mice; N, no treatment; P, P4N-treatment.
# (§2) Reverse transcription PCR. Human PBMCs or THP-1 cells were treated with P4N, and then the mRNA expression of INHBA and BAFF in these cells was measured by reverse transcription PCR. Briefly, total cellular RNA was extracted with Trizol reagent (Invitrogen) and reverse-transcribed into cDNA using the Superscript RT-kit (Invitrogen). The cDNA of INHBA and BAFF were then amplified by PCR. GAPDH cDNA in the samples was used to normalize the loading amounts in each reaction. Finally, PCR products were resolved by electrophoresis on 2% agarose gels and visualized with ethidium bromide.
# CT26 tumors [1] = assay: P4N treatments in vivo, CT-26 tumors in nude mice; parameters: species or system nude mice (BALB/c/nu); settings: immunodeficient nude mice, one intratumoral injection of 2.5 mg/kg or 5 mg/kg
# Description: (§3) P4N treatments in vivo. BALB/c or BALB/c/nu mice (6 week old) were inoculated subcutaneously with 1×10^6 CT-26 cells in 100 μl PBS. When the average tumor mass reached 50 mm^3, the animals were treated with 2.5 mg/kg or 5 mg/kg of P4N in one intratumoral injection. Subsequently, the tumor volumes were measured using a caliper every 2 days, and the volumes were calculated using the following formula: volume (mm^3)=length×width×height. Before sacrifice, the sera of the mice were collected for experimental use.
# THP-1 cells [2] = assay: Activin A and BAFF mRNA and protein in THP-1 cells, RT-PCR and ELISA; format: cell-based
# Description: as §1
# as §2, with “Finally, PCR products were resolved by electrophoresis on 2% agarose gels and visualized with ethidium bromide.” left out
# THP-1 cells [3] = assay: Cytokine and chemokine production of P4N treated THP-1, Bio-Plex and ELISA; format: cell-based, human
# Description: THP-1 cells were treated with 3 μM of P4N or the vehicle control (NC) for 24 h. Supernatants were collected and analyzed using the Bio-Plex assay for human cytokines. Shown are the concentrations of 27 human cytokines for each treatment from three independent experiments. The levels of IL-2, IL-4, IL-6, IL-7, IL-9, IL13, IL-15, Eotaxin, G-CSF, IFN-γ and PDGF-bb were undetectable.
# FIG. 13 provides graphs showing P4N-induced pro-inflammatory cytokine production in THP-1 cells. THP-1 cells were treated with 3 μM P4N for different lengths of time, Cell supernatants were collected and TNF-α, IL-1β and IL-8 quantitated by ELISA. All results are the mean of three independent experiments (n=6).
# CT26 tumors [4] = assay: P4N in B cell or CD8+ T cell depleted mice bearing CT26 tumors; format: in vivo, BALB/c mice; settings: 5 mg/kg intratumoral every week
# Description: FIGS. 1A-1C illustrate the antitumor effects of low dose P4N in immune competent and deficient mice. (A) BALB/c (n=10/group) and nude mice (n=10/group) bearing CT26 tumors were treated with a single intratumoral injection of 2.5 or 5 mg/kg of P4N N. (B) B cell or CD8+ T cell depleted BALB/c mice (n=9/group) bearing CT26 tumors were treated with 5 mg/kg of P4N by intratumoral injection every week. Tumor volumes were measured every 2 days after treatments. Significant differences between the P4N groups and the PBS group were identified and labeled with *:p<0.05 and **:p<0.01. (C) Immunohistochemistry staining was used to monitor the infiltrations of macrophage (F4/80), DC (CD11c), T (CD3) and B cells (CD20) in the tumor area after a single intratumoral injection of PBS or 5 mg/kg of P4N. The photos are representative of the mice sacrificed on day 7 after the treatments.
# as §3, with “use. […]” for “use.”
# [5] = THP-1 monocytes, 3 μM P4N, ELISA
smiles,measurement,setting,value
"C[C@H](Cc1ccc(OCCN2CCCCC2)c(OCCN2CCCCC2)c1)[C@@H](C)Cc1ccc(OCCN2CCCCC2)c(OCCN2CCCCC2)c1 [P4N, meso-2,3-dimethyl-1,4-bis(3,4-[2-(piperidino)ethoxyphenyl])butane tetrakishydrochloride salt]",proliferation of Raji or OKT3 cells,Raji or OKT3 cells,increased the proliferation
same,gene expression and protein production of Activin A and BAFF,mouse splenocytes,increase their gene expression and protein production
same,growth of CT26 tumors,CT26 tumors [1],had no effect
same,time of elevated BAFF expression,"THP-1 cells [2]; THP-1, 6 μM P4N",8 h
same,time of up-regulated mRNA expression of Activin A,"THP-1 cells [2]; THP-1, 6 μM P4N",2 h
same,dose dependence of Activin A and BAFF mRNA and protein levels,"THP-1 cells [2]; THP-1, increasing dosages of P4N, 12 h",dose-dependent manner
same,"levels of IL-2, IL-4, IL-6, IL-7, IL-9, IL13, IL-15, Eotaxin, G-CSF, IFN-γ and PDGF-bb","THP-1 cells [3]; THP-1, 3 μM P4N, 24 h",undetectable
same,expression of pro-inflammatory cytokines and chemokines,"THP-1 cells [3]; THP-1, 3 μM P4N, 24 h, Bio-Plex",increased the expression
same,time of stimulated IL-8 release,THP-1 cells [3]; [5],≥ 8 h
same,time to induction of TNF-α and IL-1β expression,THP-1 cells [3]; [5],≤ 4 h
same,P4N-induced tumor inhibition under B cell-depletion,CT26 tumors [4]; B cell depleted,abolished the effect of P4N-induced tumor inhibition
same,P4N-induced tumor inhibition under CD8+ T cell-depletion,CT26 tumors [4]; CD8+ T cell depleted,only attenuated the effect of P4N-induced tumor inhibition
